Measured values as given in the supplement of paper PMC6045584.
± gives the standard deviation of the averaged measurements.

Tests used:
[1] = compound: C[C@H](CN(C)C)Oc1nc(Nc2cc3cccc(Cl)c3cn2)cnc1C#N; test: surviving fraction relative to DMSO-only wells; higher = less growth inhibition; conditions: exposure time: 5 days
How it was run: (§1)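 Tumour cell lines were grown to log phase and seeded at 250–500 cells per well in 384-well plates. They were exposed continuously to inhibitors at 0.5, 1, 5, 10, 50, 100, 500 and 1000 nM for five days, beginning 24 hours after seeding. Surviving fraction is CellTiter-Glo luminescence normalised to the median of DMSO-only wells.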

BEZ-235 = compound: Cn1c(=O)n(-c2ccc(C(C)(C)C#N)cc2)c2c3cc(-c4cnc5ccccc5c4)ccc3ncc21 [BEZ-235]; test: as above; conditions: exposure time: 5 days
How it was run: as §1

Test System	surviving fraction ([1]; 0.5 nM)	surviving fraction ([1]; 1 nM)	surviving fraction ([1]; 5 nM)	surviving fraction ([1]; 10 nM)	surviving fraction ([1]; 50 nM)	surviving fraction ([1]; 100 nM)	surviving fraction ([1]; 500 nM)	surviving fraction ([1]; 1000 nM)	surviving fraction (BEZ-235; 0.5 nM)	surviving fraction (BEZ-235; 1 nM)	surviving fraction (BEZ-235; 5 nM)	surviving fraction (BEZ-235; 10 nM)	surviving fraction (BEZ-235; 50 nM)	surviving fraction (BEZ-235; 100 nM)	surviving fraction (BEZ-235; 500 nM)	surviving fraction (BEZ-235; 1000 nM)
G292 BONE	1.06 ± 0.053	1.02 ± 0.012	1.05 ± 0.021	1.05 ± 0.075	1.107 ± 0.0061	1.08 ± 0.061	0.648 ± 0.046	0.43 ± 0.028	1.02 ± 0.026	0.987 ± 0.027	0.974 ± 0.025	0.982 ± 0.036	0.526 ± 0.032	0.357 ± 0.0091	0.202 ± 0.0096	0.163 ± 0.0093
HCC38 BREAST	1.25 ± 0.22	1.32 ± 0.18	1.36 ± 0.28	1.3 ± 0.14	0.989 ± 0.06	0.821 ± 0.23	0.125 ± 0.028	0.0697 ± 0.013	1.33 ± 0.21	1.21 ± 0.094	1.19 ± 0.037	1.2 ± 0.1	0.862 ± 0.013	0.666 ± 0.035	0.291 ± 0.041	0.278 ± 0.054
HCC70 BREAST	1.07 ± 0.06	1.11 ± 0.14	1.01 ± 0.038	1.09 ± 0.034	1.1 ± 0.045	1.14 ± 0.025	0.639 ± 0.086	0.191 ± 0.021	1.1 ± 0.04	1.08 ± 0.075	1.02 ± 0.082	1.13 ± 0.1	0.836 ± 0.1	0.599 ± 0.068	0.347 ± 0.034	0.296 ± 0.025
HMLE3 BREAST	1 ± 0.081	0.949 ± 0.035	1.01 ± 0.04	0.998 ± 0.056	1.07 ± 0.069	1.07 ± 0.1	0.93 ± 0.076	0.735 ± 0.025	1.03 ± 0.092	0.966 ± 0.069	0.961 ± 0.036	0.929 ± 0.047	0.582 ± 0.035	0.315 ± 0.011	0.111 ± 0.0049	0.0777 ± 0.0078
HMT3552 BREAST	0.984 ± 0.029	1.04 ± 0.043	1.08 ± 0.093	1.04 ± 0.036	1.22 ± 0.018	1.19 ± 0.064	0.121 ± 0.016	0.103 ± 0.01	1.09	1.05	1.01	1.02	0.681	0.466	0.186	0.191
HS57T BREAST	0.943 ± 0.054	0.933 ± 0.048	1.04 ± 0.039	1.06 ± 0.041	1.03 ± 0.025	0.929 ± 0.057	0.119 ± 0.0095	0.0913 ± 0.011	1.08 ± 0.039	1.03 ± 0.033	0.916 ± 0.027	0.826 ± 0.016	0.335 ± 0.021	0.258 ± 0.0071	0.186 ± 0.009	0.181 ± 0.011
HS578T BREAST	0.988 ± 0.17	1.02 ± 0.11	0.972 ± 0.14	1.04 ± 0.11	1.05 ± 0.041	0.796 ± 0.14	0.216 ± 0.028	0.191 ± 0.02	1.13 ± 0.15	0.972 ± 0.15	0.997 ± 0.18	0.817 ± 0.092	0.46 ± 0.028	0.384 ± 0.026	0.263 ± 0.027	0.257 ± 0.02
